Experimental data from patent publication US20030004211A1, “Carbohydrate modifying agent and drinks containing the modifying agent” (priority 2001, published 2003).

How the values were obtained:
[1] = system: sobrinus streptococci; experiment: in vitro growth and adherence of cariogenic bacteria (UCSF School of Preventive Dentistry study); assay type: cell-based; conditions: 0.5% zinc solution
Text: (§1) In another preferred embodiment of the invention, the formulation includes one or more zinc salt or other source of the zinc ion. Metabolically, zinc is a critical nutrient in the synthesis of insulin and the metabolism of carbohydrates. From a dental perspective, cariogenic bacteria enzymatically produce an insoluble glucan deposit from simple sugars present in the mouth that firmly adheres to the enamel tooth surface.

[2] = system: mutans streptococci; experiment: as above; assay type: cell-based; conditions: 0.5% zinc solution
Text: as §1

[Cl-].[Cl-].[Zn+2] [zinc chloride]
inhibited: adherence of sobrinus streptococci [1] | growth of sobrinus streptococci [1] | adherence of mutans streptococci [2] | growth of mutans streptococci [2]

zinc ascorbate
inhibited: adherence of sobrinus streptococci [1] | growth of sobrinus streptococci [1] | adherence of mutans streptococci [2] | growth of mutans streptococci [2]
